# Where two headings read alike, the source gives them in different places.
# Legend:
# [1] = acute toxicity in vivo model; parameters: species or system mice; settings: accumulative dose 100 mg kg−1 (5, 15, 30, 50 mg kg−1 at 2 h intervals), p.o. and i.p.
# Method: The compound was applied at an accumulative dose of 100 mg kg^−1 (per os (p.o.). as well as intraperitoneally (i.p.)). The first application was 5 mg kg^−1, 2 h later 15 mg kg^−1, 2 h later 30 mg kg^−1 and again 2 h later 50 mg kg^−1. […] Moreover, we performed pharmacokinetics studies in mice, dosing i.v., i.p. and p.o. (Supplementary Table 5). […] In contrast, high exposure and sustained levels of ∼2 μM were obtained after i.p. dosing at 100 mg kg^−1.
# In addition, cytotoxicity tests with compound 1o were carried out on immortalized human hepatocytes, Fa2N-4 cells, resulting in an LC50>50 μM. The best compound 1o has furthermore been tested in an acute toxicity in vivo model at the Swiss Tropical Institute, Basel.
# [2] = system: hGrx1-roGFP2 in P. falciparum 3D7; assay: cytosolic glutathione redox sensor in parasites; type: cell-based, Plasmodium falciparum; settings: for oxidizing effect, change of 405/488 nm fluorescence ratio: 4 h
# Method: To further study the mechanism of action of the steroid compounds and evaluate the potential involvement of redox stress, compound 1o was tested in cell culture on the chloroquine-sensitive P. falciparum 3D7 strain expressing the cytosolic glutathione redox sensor hGrx1-roGFP2 (Supplementary Note 2). […]
# signals at 405/475 nm were calculated and plotted against time and/or concentration of compound 1o or redox active compounds. Data from three independent experiments were […]
# 100 µM for 4 h and 24 h incubations. Transfection of the Pf3D7 strain with the redox sensor was carried out, and the parasites were cultured as described under constant drug pressure with 5 nM WR99210 (Jacobus Pharmaceuticals, New Jersey, USA).45,46 P. falciparum trophozoites were enriched via magnet separation.47 Parasitemia was counted by using Giemsa-stained blood smears. The IC50 of compound 1o on P. falciparum 3D7 asexual blood stages was verified to be about 5 nM in an additional 72 h [3H] incorporation assay45 directly before the experiment. The effect of compound 1o on P. falciparum was investigated in 4 h and 24 h incubations. For 4 h experiments, trophozoite stage parasites (26-30 h post invasion) of 3D7[hGrx1-roGFP2] (6-8% parasitemia) were magnetically enriched (Miltenyi Biotec, Germany), counted by using the improved Neubauer hemocytometer (Brand GmbH, Germany), and returned to cell culture (at 0.5 x 10^6 trophozoites/µl) for at least 1 h to recover.
# 1.0 x 10^6 cells in 100 µl cell culture medium were placed into LoBind tubes (Eppendorf) for 4 h incubation experiments. The parasites were treated with compound 1o at 50 x, and 100 x IC and with mefloquine (MQ) as a standard antimalarial drug at 1 µM (IC = 8 nM)45 for 4 h […]
# for 15 min at 37 °C. For 24 h experiments, a 5 ml culture (6-8% parasitemia) of ring stage parasites (6-10 h post invasion) was treated with compound 1o at 4 x, 10 x, 20 x IC50 and with 100 nM MQ. Prior to enrichment, cysteines were blocked with 2 mM NEM. For 4 h and 24 h experiments, cells were washed after incubation with pre-warmed Ringer’s solution […]
# Hepes, 1 mM NaH2PO4, pH 7.4) and were seeded onto poly-L-lysine-coated µ-slides VI (Ibidi, Martinsried, Germany). A Leica confocal system TCS SP5 inverted microscope equipped with the objective HCX PL APO 63.0x1.30 GLYC 37 °C UV connected to a 37 °C temperature chamber was used. The argon laser power was set to 20%; scanning was performed at 400 Hz frequency and at a 512 × 512 pixel resolution. The smart gain and […]
# smart offset were 950 V and -0.9%, respectively. With a sequential scan, we excited the sensor at 405 nm and at 488 nm and detected emissions at 500-550 nm. Laser intensity for both lines was adjusted to match the full dynamic range of the probe to the dynamic range of the detector (405 nm: 12%, 488 nm: 4%). Autofluorescence images were simultaneously taken at ex 405 nm / em 430-450 nm and individually defined together with the background for every image, but no fluorescence signal could be detected. All experiments included non- […]
# and 10 mM DTT (2 min incubation), respectively, prior to blocking with NEM. Only parasites showing fluorescent signals at both 405 and 488 nm excitation and an intact host cell were chosen for analysis. Each experiment was carried out three times. At least 10 parasites were analyzed, resulting in at least 30 experimental values per incubation. The Leica LAS AF Lite software for fluorescence analysis was used. The 405/488 nm ratio was calculated. The obtained ratio values were normalized to the control ratio value, which was set to 100. The graphs were plotted using the GraphPad Prism 5 software (San Diego, CA, USA). One way-ANOVA test with 95% confidence intervals with the Dunnett’s Multiple Comparison Test was applied for statistical analysis of significance (*, p < 0.05; **, p < 0.01; ***, p < 0.001). […]
# with 1 µM MQ. 24 h incubation (Supplementary Figure 8 panel B) with compound 1o resulted in a higher increase of the fluorescence ratio in a concentration-dependent manner. […]
# [3] = hepatic microsome stability; type: in vitro ADME; settings: for remaining at 1 h: liver microsomes, read-out: Hepatic Microsome Stability % remaining after 1 h
# Method: (§1) Pharmacokinetic data were obtained for compound 1o at the Sanford-Burnham Medical Research Institute according to established procedures. Compound solubility in an aqueous solution was measured using an automated kinetic solubility method. The concentration of the compound in a saturated pH-buffered aqueous solution was determined via UV absorbance (250–498 nm) and compared with the spectra of a precipitation-free reference solution. The plasma stability of the compound was determined at a single concentration using species-specific plasma. The percentage of parent compound remaining after 3 h was determined via LC-MS/MS. The percentage of compound 1o bound to plasma proteins was determined through rapid equilibrium dialysis and quantified via LC-MS/MS. Metabolic stability of the compound was determined at a single concentration using species-specific liver microsomes that contained cytochrome P450s, flavin-monooxygenases, carboxyl-esterases, epoxide hydrolases, and other drug-metabolizing enzymes. The quantification was carried out via LC-MS/MS. Membrane permeability of compound 1o was measured using an in vitro model for the passive transport from the gastrointestinal tract into the blood system. A double-sink parallel artificial membrane permeability assay PAMPA, in a 96-well format was employed.
# [4] = PAMPA membrane permeability; type: in vitro ADME
# Method: as §1
smiles,measurement,setting,value
COc1ccc2c(c1)CCC1C2CC[C@@]2(C)C1CC[C@H]2NCc1cc2ccccc2cc1O (some centres unmarked) [1o],acute toxicity symptoms,[1],No acute toxicity symptoms were observed
same,change of 405/488 nm fluorescence ratio,"[2]; 20 nM (4 x IC50), 24 h",1.8 fold
same,change of 405/488 nm fluorescence ratio,"[2]; 100 nM, 24 h",2.4 fold
same,"oxidizing effect, change of 405/488 nm fluorescence ratio",[2]; 250 nM (50 x IC50),approximately 1.5 fold
same,"oxidizing effect, change of 405/488 nm fluorescence ratio",[2]; 500 nM (100 x IC50),approximately 1.5 fold
same,redox ratio of the probe,"[2]; 20, 50 and 100 nM, 24 h, not significant",dose-dependent increase of the redox ratio of the probe
same,Hepatic Microsome Stability % remaining after 1 h,[3]; Human,~38%
same,Hepatic Microsome Stability % remaining after 1 h,[3]; Mouse,~38%
same,remaining at 1 h,[3]; human,38.5%
same,remaining at 1 h,[3]; mouse,38.5%
same,PAMPA Pe,"[4]; Donor pH 5.0, Acceptor pH 7.4",0 ×10⁻⁶ cm/s
same,PAMPA Pe,"[4]; Donor pH 6.2, Acceptor pH 7.4",0 ×10⁻⁶ cm/s
same,PAMPA Pe,"[4]; Donor pH 7.4, Acceptor pH 7.4",0 ×10⁻⁶ cm/s
same,PAMPA permeability in words,"[4]; all 3 pH levels, compound well embedded in the filter membrane",very poorly permeable at all 3 pH levels tested

# — PMC5321741, “Arylmethylamino steroids as antiparasitic agents” (Nature Communications, 2017)
